The source of these data is US20090124819A1, “2-SUBSTITUTED VITAMIN D DERIVATIVES” (WISCONSIN ALUMNI RESEARCH FOUNDATION, priority 2001, published 2009).

Some results are limits rather than exact numbers.

This assay addresses T1, bovine thymus VDR (Bos taurus, UniProt Q28037).
T1 construct: Bovine thymus VDR was purchased from Yamasa Biochemical; purchased Yamasa Biochemical (Choshi, Chiba Prefecture, Japan) lot; 112831; host or cells: bovine thymus
T1 sequence (Q28037 1-426): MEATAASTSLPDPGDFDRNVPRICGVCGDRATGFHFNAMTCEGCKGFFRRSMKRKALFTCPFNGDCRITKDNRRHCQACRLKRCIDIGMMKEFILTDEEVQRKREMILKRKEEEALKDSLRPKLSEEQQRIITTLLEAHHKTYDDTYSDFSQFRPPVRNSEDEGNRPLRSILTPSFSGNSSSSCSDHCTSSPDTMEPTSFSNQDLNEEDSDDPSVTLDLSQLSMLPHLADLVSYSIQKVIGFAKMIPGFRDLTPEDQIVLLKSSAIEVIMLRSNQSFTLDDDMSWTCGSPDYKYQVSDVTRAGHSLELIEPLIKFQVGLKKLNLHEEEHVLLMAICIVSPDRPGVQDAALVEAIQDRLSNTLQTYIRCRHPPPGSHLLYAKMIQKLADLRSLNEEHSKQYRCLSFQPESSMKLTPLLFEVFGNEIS
Put plainly: Binding to bovine thymus vitamin D receptor (VDR), displacement of [3H]-1α,25-dihydroxyvitamin D3. To be noted: X=(y/x)×100 from concentrations inhibiting 50% of [3H]-1α,25-dihydroxyvitamin D3 binding; 1α,25-dihydroxyvitamin D3 taken as 100. As to the method: The capability of the vitamin D derivatives of the present invention to bind to bovine thymus VDR was tested.
The vitamin D derivatives of the present invention used were the compounds synthesized in the above-described examples, i.e., (5Z,7E)-(1S,3R)-2,2-dimethyl-9,10-seco-5,7,10(19)-cholestatrien-1,3,25-triol (compound 21), (5Z,7E)-(1R,3S)-2,2-dimethyl-9,10-seco-5,7,10(19)-cholestatrien-1,3,25-triol (compound 22), (5Z,7E)-(1S,3S)-2,2-dimethyl-9,10-seco-5,7,10(19)-cholestatrien-1,3,25-triol (compound 23), and (5Z,7E)-(1R,3R)-2,2-dimethyl-9,10-seco-5,7,10(19)-cholestatrien-1,3,25-triol (compound 24).
In connection with each of compounds 21 to 24 and 1α,25-dihydroxyvitamin D3 (used as a standard), ethanol solutions at various concentrations were prepared in the following manner: In the case of 1α,25-dihydroxyvitamin D3, serial dilutions were prepared at concentrations of 5 nanograms, 500 picograms, 250 picograms, 125 picograms, 63 picograms, 32 picograms, 16 picograms, 8 picograms, 4 picograms, 2 picograms, 1 picogram, 0.5 picogram, and 0.25 picogram as the amount of the compound contained in 50 microliters. In the case of the 1α,3β-compound and the 1α,3α-compound for the configurations of the substituents at the 1-position and the 3-position, serial dilutions were prepared at concentrations of 500 nanograms, 50 nanograms, 25 nanograms, 13 nanograms, 6.3 nanograms, 3.2 nanograms, 1.6 nanograms, 800 picograms, 400 picograms, 200 picograms, 20 picograms, and 2 picograms. In the case of the 1β,3β-compound and the 1β,3α-compound for the configurations of the substituents at the 1-position and the 3-position, serial dilutions were prepared at concentrations of 500 nanograms, 50 nanograms, 5 nanograms, 500 picograms, and 50 picograms.
Bovine thymus VDR was purchased from Yamasa Biochemical (Choshi, Chiba Prefecture, Japan; lot. 112831), and one ampoule thereof (ca. 25 mg) was dissolved in 55 ml of 0.05 M phosphate-0.5 M potassium buffer (pH 7.4).
The ethanol solution […] of each of compounds 21 to 24 or 1α,25-dihydroxyvitamin D3 and the receptor solution (500 μl) were placed in a test tube, and pre-incubated for 1 hour at room temperature. Then, a [^3H]-1α,25-dihydroxyvitamin D3 solution (50 μl) was added at a final concentration of 0.1 nM, and the mixture was incubated overnight at 4° C. Dextran-coated charcoal was added to the reaction mixture, followed by mixing. […] The supernatant (500 μl) was mixed with ACS-II (9.5 ml) (Amersham, England) for radioactivity measurement.
The relative VDR-binding potency of each of Compounds 21 to 24 was calculated from the following equation, with the VDR-binding potency of 1α,25-dihydroxyvitamin D3 being taken as 100. […]
Turning to `C=C1C(=CC=C2CCCC3(C)C2CCC3C(C)CCCC(C)(C)O)CC(O)C(C)(C)C1O` [Compound 22, (5Z,7E)-(1R,3S)-2,2-Dimethyl-9,10-seco-5,7,10(19)-cholestatrien-1,3,25-triol], the “Binding potency (relative VDR-binding potency)” value amounted to 0.005.
Regarding `C=C1/C(=C\C=C2/CCC[C@@]3(C)C2CCC3[C@H](C)CCCC(C)(C)O)C[C@H](O)C(C)(C)[C@@H]1O` (stereo partly drawn) [Compound 23, (5Z,7E)-(1S,3S)-2,2-Dimethyl-9,10-seco-5,7,10(19)-cholestatrien-1,3,25-triol], the “Binding potency (relative VDR-binding potency)” value was 0.06.
Consider `C=C1/C(=C\C=C2/CCC[C@@]3(C)C2CCC3[C@H](C)CCCC(C)(C)O)C[C@@H](O)C(C)(C)[C@H]1O` (stereo partly drawn) [Compound 24, (5Z,7E)-(1R,3R)-2,2-Dimethyl-9,10-seco-5,7,10(19)-cholestatrien-1,3,25-triol], for which the “Binding potency (relative VDR-binding potency)” value is reported as less than 0.001.
As for `C=C1/C(=C\C=C2/CCC[C@@]3(C)C2CCC3[C@H](C)CCCC(C)(C)O)C[C@@H](O)C(C)(C)[C@@H]1O` (stereo partly drawn) [Compound 21, (5Z,7E)-(1S,3R)-2,2-Dimethyl-9,10-seco-5,7,10(19)-cholestatrien-1,3,25-triol], the figure is 3.
